Experimental data from US20250188110A1, “SPECIFIC SMALL MOLECULE INHIBITORS THAT BLOCK KMT9 METHYLTRANSFERASE ACTIVITY AND FUNCTION” (ALBERT-LUDWIGS-UNIVERSITÄT FREIBURG, priority 2021, published 2025).
Read-outs that look alike come from different tables or passages of the source.

Key:
KMT9 [1] = target: T1, KMT9 (Homo sapiens, UniProt Q9Y5N5); assay: KMT9 methyltransferase inhibition assay, MTaseGlo luminescence (from entry 155); assay type: biochemical; conditions: 100 nM KMT9, 5 μM ETF1, 1 μM SAM
T1 sequence (Q9Y5N5 1-214): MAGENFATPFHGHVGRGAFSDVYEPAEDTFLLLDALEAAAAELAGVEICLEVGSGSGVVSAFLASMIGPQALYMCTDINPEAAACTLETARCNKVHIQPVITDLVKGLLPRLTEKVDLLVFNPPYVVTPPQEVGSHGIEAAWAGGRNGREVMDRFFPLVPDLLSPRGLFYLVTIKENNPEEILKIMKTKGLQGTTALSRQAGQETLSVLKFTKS
T1 sequence (Q9UI30 1-120 isoform Q9UI30-2 partner): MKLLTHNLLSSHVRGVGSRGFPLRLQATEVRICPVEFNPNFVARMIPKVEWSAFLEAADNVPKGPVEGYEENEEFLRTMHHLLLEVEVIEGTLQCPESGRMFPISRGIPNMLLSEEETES
How it was run: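 KMT9 (100 nM final) pre-incubated with inhibitor for 15 min at room temperature, then reacted with 5 μM ETF1 and 1 μM SAM for 2 h at 30° C. at 2% DMSO final. MTaseGlo luminescence read after 60 min detection; IC50 reported in four potency bins.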

KMT9 [2] = target: T1, KMT9; assay: KMT9 thermal shift assay (SyproOrange); assay type: binding
How it was run: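 ΔTm versus DMSO-only control is reported in bins (>20 K, 15–20 K, 10–15 K, ≤10 K), using Tm from Boltzmann sigmoidal fits of SyproOrange melt curves. KMT9 with compound in pH 8.5 BTP buffer containing MgCl2 and DTT was preincubated at 25° C, then ramped 1° C per 15 s up to 95° C.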

KMT9 [3] = target: T1, KMT9; assay: Microscale thermophoresis (MST) KMT9 binding
How it was run: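 Kd from microscale thermophoresis: compound series against 20 nM His-KMT9 labelled via RED-Tris-NTA, buffer 25 mM HEPES (pH 7.5)/100 mM NaCl/1 mM DTT/0.05% Tween, 40% MST power, 100% LED. Reported as classes: A ≤10 nM, B >10–100 nM, C >100–1000 nM, D >1000 nM.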

[4] = from entry 155: MTaseGlo assay, read-out: Inhibition
[5] = ΔTm, 500 µM compound, 2 μM KMT9, 5X SO, read-out: Thermal shift
[6] = microscale thermophoresis, His-tag labelled KMT9 (20 nM), read-out: MST
[7] = IC50 class, MTaseGlo procedure (entries from 155 on), read-out: Inhibition
[8] = ΔTm class, 500 uM compound, 2 μM KMT9, read-out: Thermal shift
[9] = His-tag labelled KMT9 20 nM, Kd class, read-out: MST

Structure (SMILES) | IC50 (KMT9 [1]; [4]) [nM] | ΔTm at 500 µM (KMT9 [2]; [5]) [°C] | Kd (KMT9 [3]; [6]) [nM] | IC50 (KMT9 [1]; [7]) [nM] | ΔTm at 500 µM (KMT9 [2]; [8]) [°C] | Kd (KMT9 [3]; [9]) [nM] | other results
O[C@@H]1[C@@H](CNCCCNCCc2ccccc2)C[C@@H](n2cc(-c3cc(Cc4ccccc4)ns3)c3cncnc32)[C@@H]1O [Compound 617, (1R,2S,3R,5R)-3-[5-(3-Benzyl-1,2-thiazol-5-yl)pyrrolo[2,3-d]pyrimidin-7-yl]-5-[({3-[(2-phenylethyl)amino]propyl}amino)methyl]cyclopentane-1,2-diol] | 1000 to 10000 | 10 to 15 | > 1000 | – | – | – | –
O[C@@H]1[C@@H](CNCCCNCCc2ccc(F)cc2)C[C@@H](n2cc(-c3cc(Cc4ccccc4)cs3)c3cncnc32)[C@@H]1O [Compound 618, (1R,2S,3R,5R)-3-[5-(4-Benzylthiophen-2-yl)pyrrolo[2,3-d]pyrimidin-7-yl]-5-{[(3-{[2-(4-fluorophenyl)ethyl]amino}propyl)amino]methyl}cyclopentane-1,2-diol] | – | – | – | 1000 to 10000 | 10 to 15 | 100 to 1000 | –
O[C@@H]1[C@@H](CNCCCNCCc2ccc(C(F)(F)F)cc2)C[C@@H](n2cc(-c3cc(Cc4ccccc4)cs3)c3cncnc32)[C@@H]1O [Compound 619, (1R,2S,3R,5R)-3-(5-(4-Benzylthiophen-2-yl)-7H-pyrrolo[2,3-d]pyrimidin-7-yl)-5-(((3-((4-(trifluoromethyl)phenethyl)amino)propyl)amino)methyl)cyclopentane-1,2-diol] | – | – | – | > 10000 | ≤ 10 | > 1000 | –
CN(CCCNCCc1ccccc1)C[C@H]1C[C@@H](n2cc(-c3cc(Cc4ccccc4)cs3)c3cncnc32)[C@H](O)[C@@H]1O [Compound 620, (1R,2S,3R,5R)-3-[5-(4-Benzylthiophen-2-yl)pyrrolo[2,3-d]pyrimidin-7-yl]-5-{[methyl({3-[(2-phenylethyl)amino]propyl})amino]methyl}cyclopentane-1,2-diol] | – | – | – | 1000 to 10000 | 10 to 15 | 100 to 1000 | –
O[C@@H]1[C@@H](CNCCCNCCc2ccccc2)C[C@@H](n2cc(-c3cc(Cc4ccccc4)cs3)c3cnc(Cl)nc32)[C@@H]1O [Compound 621, (1R,2S,3R,5R)-3-[5-(4-Benzylthiophen-2-yl)-2-chloropyrrolo[2,3-d]pyrimidin-7-yl]-5-[{{3-[(2-phenylethyl)amino]propyl}amino)methyl]cyclopentane-1,2-diol] | 1000 to 10000 | 15 to 20 | 100 to 1000 | – | – | – | –
CS(=O)(=O)n1ccc(-c2cn([C@@H]3C[C@H](CNCCCNCCc4ccccc4)[C@@H](O)[C@H]3O)c3nc(Cl)ncc23)n1 [Compound 622, (1R,2S,3R,5R)-3-(2-Chloro-5-(1-(methylsulfonyl)-1H-pyrazol-3-yl)-7H-pyrrolo[2,3-d]pyrimidin-7-yl)-5-(((3-(phenethylamino)propyl)amino)methyl)cyclopentane-1,2-diol] | – | – | – | 100 to 1000 | 15 to 20 | 100 to 1000 | –
O[C@@H]1[C@@H](CNCCCNCCc2ccccc2)C[C@@H](n2cc3c4c(ncnc42)NCCC3)[C@@H]1O [Compound 628, (1S,2R,3R,5R)-3-(((3-(Phenethylamino)propyl)amino)methyl)-5-(6,7,8,9-tetrahydro-2H-2,3,5,6-tetraazabenzo[cd]azulen-2-yl)cyclopentane-1,2-diol] | 1000 to 10000 | 10 to 15 | 100 to 1000 | – | – | – | –
O[C@@H]1[C@@H](CNCCCNCCc2ccccc2)C[C@@H](n2cc3c4c(ncnc42)NCCCC3)[C@@H]1O [Compound 631, (1S,2R,3R,5R)-3-(((3-(phenethylamino)propyl)amino)methyl)-5-(7,8,9,10-tetrahydro-2,3,5,6-tetraazacycloocta [cd]inden-2 (6H)-yl)cyclopentane-1,2-diol] | 1000 to 10000 | 10 to 15 | 10 to 100 | – | – | – | –
O[C@@H]1[C@@H](CNCCCNCCc2ccccc2)C[C@@H](n2cc(-c3nc(Cc4ccccc4)cs3)c3cnc(Cl)nc32)[C@@H]1O [Compound 634, (1R,2S,3R,5R)-3-(5-(4-Benzylthiazol-2-yl)-2-chloro-7H-pyrrolo[2,3-d]pyrimidin-7-yl)-5-(((3-(phenethylamino)propyl)amino)methyl)cyclopentane-1,2-diol] | 1000 to 10000 | 15 to 20 | 10 to 100 | – | – | – | –
Nc1nc(Cl)nc2c1c(-c1nc(Cc3ccccc3)cs1)cn2[C@@H]1C[C@H](CNCCCNCCc2ccccc2)[C@@H](O)[C@H]1O [Compound 635, (1R,2S,3R,5R)-3-(4-Amino-5-(4-benzylthiazol-2-yl)-2-chloro-7H-pyrrolo[2,3-d]pyrimidin-7-yl)-5-(((3-(phenethylamino)propyl)amino)methyl)cyclopentane-1,2-diol] | 100 to 1000 | 15 to 20 | 100 to 1000 | – | – | – | –
Nc1nc(Cl)nc2c1c(-c1ccn(Cc3ccccc3)n1)cn2[C@@H]1C[C@H](CNCCCNCCc2ccccc2)[C@@H](O)[C@H]1O [Compound 636, (1R,2S,3R,5R)-3-(4-Amino-5-(1-benzyl-1H-pyrazol-3-yl)-2-chloro-7H-pyrrolo[2,3-d]pyrimidin-7-yl)-5-(((3-(phenethylamino)propyl)amino)methyl)cyclopentane-1,2-diol] | 100 to 1000 | > 20 | ≤ 10 | – | – | – | –
O[C@@H]1[C@@H](CNCCCNCCc2ccccc2)C[C@@H](n2cc(-c3cc(Cc4ccccc4)cs3)c3cncnc32)[C@@H]1O [Compound 637, (1R,2S,3R,5R)-3-(5-(4-benzylthiophen-2-yl)-7H-pyrrolo[2,3-d]pyrimidin-7-yl)-5-(((3-(phenethylamino)propyl)amino)methyl)cyclopentane-1,2-diol] | 1000 to 10000 | 10 to 15 | > 1000 | – | – | – | –
O[C@@H]1[C@@H](CNCCCNCCc2ccccc2)C[C@@H](n2cc(-c3nccs3)c3cnc(Cl)nc32)[C@@H]1O [Compound 638, (1R,2S,3R,5R)-3-(2-Chloro-5-(thiazol-2-yl)-7H-pyrrolo[2,3-d]pyrimidin-7-yl)-5-(((3-(phenethylamino)propyl)amino)methyl)cyclopentane-1,2-diol] | 1000 to 10000 | 15 to 20 | 100 to 1000 | – | – | – | –
O[C@@H]1[C@@H](CNCCCNCCc2ccccc2)C[C@@H](n2cc(-c3nc(Oc4ccccc4)cs3)c3cncnc32)[C@@H]1O [Compound 639, (1S,2R,3R,5R)-3-(((3-(Phenethylamino)propyl)amino)methyl)-5-(5-(4-phenoxythiazol-2-yl)-7H-pyrrolo[2,3-d]pyrimidin-7-yl)cyclopentane-1,2-diol] | 1000 to 10000 | 10 to 15 | > 1000 | – | – | – | –
CS(=O)(=O)n1ccc(-c2cn([C@@H]3C[C@H](CNCCCNCCc4ccccc4)[C@@H](O)[C@H]3O)c3ncncc23)n1 [Compound 640, (1R,2S,3R,5R)-3-(5-(1-(Methylsulfonyl)-1H-pyrazol-3-yl)-7H-pyrrolo[2,3-d]pyrimidin-7-yl)-5-(((3-(phenethylamino)propyl)amino)methyl)cyclopentane-1,2-diol] | 1000 to 10000 | 10 to 15 | > 1000 | – | – | – | –
O[C@@H]1[C@@H](CN(CCCNCCc2ccccc2)c2cn[nH]c2)C[C@@H](n2cc(-c3cccs3)c3cnc(Cl)nc32)[C@@H]1O [Compound 641, (1R,2S,3R,5R)-3-(2-Chloro-5-(thiophen-2-yl)-7H-pyrrolo[2,3-d]pyrimidin-7-yl)-5-(((3-(phenethylamino)propyl)(1H-pyrazol-4-yl)amino)methyl)cyclopentane-1,2-diol] | – | – | – | 100 to 1000 | 15 to 20 | ≤ 10 | –
CN(CCCNCCc1ccc(F)cc1)C[C@H]1C[C@@H](n2cc(-c3ccn(Cc4ccccc4)n3)c3cnc(Cl)nc32)[C@H](O)[C@@H]1O [Compound 642, (1R,2S,3R,5R)-3-[5-(1-Benzylpyrazol-3-yl)-2-chloropyrrolo[2,3-d]pyrimidin-7-yl]-5-{[(3-{[2-(4-fluorophenyl)ethyl]amino}propyl)(methyl)amino]methyl}cyclopentane-1,2-diol] | – | – | – | 1000 to 10000 | 15 to 20 | 10 to 100 | –
CN(CCCNCCc1ccc(F)cc1)C[C@H]1C[C@@H](n2cc(-c3ccn(Cc4ccccc4)n3)c3c(N)nc(Cl)nc32)[C@H](O)[C@@H]1O [Compound 643, (1R,2S,3R,5R)-3-[4-Amino-5-(1-benzylpyrazol-3-yl)-2-chloropyrrolo[2,3-d]pyrimidin-7-yl]-5-{[(3-{[2-(4-fluorophenyl)ethyl]amino}propyl)(methyl)amino]methyl}cyclopentane-1,2-diol] | – | – | – | – | – | – | IC50 (KMT9 [1]; MTaseGlo procedure (entries from 155), read-out: Inhibition (IC50)): 100 to 1000 nM; ΔTm at 500 µM (KMT9 [2]; 500 µM compound, 2 μM KMT9, read-out: Thermal shift (ΔTm)): > 20 °C; Kd (KMT9 [3]; His-tag labelled KMT9 20 nM, read-out: MST (Kd)): ≤ 10 nM
